According to patent US6673827B1, “Methods of treating fungal infections with inhibitors of NAD synthetase enzyme” (priority 1999, dated 2004):
Where two headings read alike, the source gives them in different places.

Assays:
[1] = system: Cryptococcus neoformans DLB-1027594CNC; experiment: In vitro study of inhibition of growth and lethality against yeast (MIC/MLC susceptibility test), isolate G; type: cell-based; conditions: Cryptococcus neoformans, Cryptococcus neoformans, 1st pair of lines, isolate assigned by line order; for MIC / MFC: DLB1027594CNC; for MFC: read-out: Minimum Lethal Conc. (MLC)
[2] = system: Torulopsis glabrata JHC-BC9951635; experiment: In vitro study of inhibition of growth and lethality against yeast (MIC/MLC susceptibility test), isolate E; type: cell-based; conditions: Torulopsis glabrata, 2nd pair of lines, isolate assigned by line order; for MIC / MFC: Nakaseomyces glabratus; for MFC: JHCBC9951635, read-out: Minimum Lethal Conc. (MLC)
[3] = system: Candida tropicalis ATCC 28707; experiment: In vitro study of inhibition of growth and lethality against yeast (MIC/MLC susceptibility test), isolate B; type: cell-based; conditions: Candida tropicalis, 1st pair of lines, isolate assigned by line order; for MFC: ATCC28707, read-out: Minimum Lethal Conc. (MLC)
[4] = system: Candida tropicalis ATCC 750; experiment: In vitro study of inhibition of growth and lethality against yeast (MIC/MLC susceptibility test), isolate A; type: cell-based; conditions: Candida tropicalis, 2nd pair of lines, isolate assigned by line order; for MFC: ATCC750, read-out: Minimum Lethal Conc. (MLC)
[5] = system: Candida albicans KJP-000531594; experiment: In vitro study of inhibition of growth and lethality against yeast (MIC/MLC susceptibility test), isolate C; type: cell-based; conditions: Candida albicans, Candida albicans, 1st pair of lines; for MFC: KJP000531594, read-out: Minimum Lethal Conc. (MLC)
[6] = system: Cryptococcus neoformans SLP-BC0012854; experiment: In vitro study of inhibition of growth and lethality against yeast (MIC/MLC susceptibility test), isolate H; type: cell-based; conditions: Cryptococcus neoformans, Cryptococcus neoformans, 2nd pair of lines, isolate assigned by line order; for MFC: SLPBC0012854, read-out: Minimum Lethal Conc. (MLC)
[7] = target: T1, NAD synthetase (recombinant protein from B. subtilis; purified) (Bacillus subtilis, UniProt P08164); experiment: NAD synthetase enzyme inhibition assay (coupled enzymatic assay, HTS); type: biochemical; conditions: IC50 (μg/mL) for Inhibit. of NAD Synthetase, table of structures used in the yeast assay (Example 4)
T1 construct: made in house
T1 sequence (P08164 whole entry): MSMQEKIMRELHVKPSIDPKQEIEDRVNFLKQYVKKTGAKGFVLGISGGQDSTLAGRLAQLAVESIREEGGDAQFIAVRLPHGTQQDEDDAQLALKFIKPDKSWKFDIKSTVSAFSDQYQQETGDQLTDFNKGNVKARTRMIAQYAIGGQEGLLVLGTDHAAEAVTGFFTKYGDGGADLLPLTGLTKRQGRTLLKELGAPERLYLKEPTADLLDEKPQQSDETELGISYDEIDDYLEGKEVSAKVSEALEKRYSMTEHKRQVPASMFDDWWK
Protocol: NAD Synthetase Enzyme Inhibition Assay-Determination of Test Compound Concentrations Providing 50% Inhibition ([…]) of the Maximum Enzyme Rate
The potential inhibitory activity of the synthetic compounds was determined by the use of a coupled enzymatic assay. The coupled assay involves two steps as summarized below. [drawing 98]
The measurement of inhibitory activities of the test compounds was facilitated by the use of a high through-put screening system (HTS system). The HTS system utilizes an integrated Sagian 2M ORCA robotic system coordinating the functions of a Beckman Biomek 2000 liquid handler and a Molecular Devices SpectraMax Plus spectrophotometer. The 2M ORCA robotic station is responsible for the movement of all hardware and the integration of multiple stations on the worksurface. The Biomek 2000 is programmed to perform all phases of liquid dispensing and mixing. The SpectraMax Plus spectrophotometer is equipped to monitor absorbance in a 96-well plate format.
The Biomek 2000 mixes these components utilizing a predefined mixing program. […] The reaction is monitored by measuring the increase in absorbance at 340 nm (NADH). The linear portion of the reaction is monitored for 180 sec. The initial velocity is determined using Softmax Pro, the software supplied with the Molecular Devices SpectrMax Plus spectrophotometer.
The test compounds were supplied as a stock solution with a concentration of 50 mM dissolved in 100% dimethyl sulfoxide (DMSO). An initial screen was conducted on all compounds using a 2 or 3 concentration screen. The 2 panel screen used concentrations of 0.2 mM and 0.1 mM for the compounds. The 3 panel screen used concentrations of 0.2 mM, 0.1 mM, and 0.05 mM. […] The IC50 values for each compound were determined graphically from a plot of % inhibition versus […].

[8] = system: Candida albicans LH-000664533; experiment: In vitro study of inhibition of growth and lethality against yeast (MIC/MLC susceptibility test), isolate D; type: cell-based; conditions: Candida albicans, Candida albicans, 2nd pair of lines, isolate assigned by line order; for MFC: LH000664533, read-out: Minimum Lethal Conc. (MLC)
[9] = system: Torulopsis glabrata ERH-BC9938274; experiment: In vitro study of inhibition of growth and lethality against yeast (MIC/MLC susceptibility test), isolate F; type: cell-based; conditions: Torulopsis glabrata, 1st pair of lines, isolate assigned by line order; for MIC / MFC: Nakaseomyces glabratus; for MFC: ERHBC9938274, read-out: Minimum Lethal Conc. (MLC)
[10] = 48 h, read at 48 hr, read-out: Minimum Inhibitory Conc. (MIC), 48 hr.
[11] = 72 h, read at 72 hr, read-out: Minimum Inhibitory Conc. (MIC), 72 hr.
[12] = JHCBC9951635, 24 h, read at 24 hr, read-out: Minimum Inhibitory Conc. (MIC), 24 hr.
[13] = JHCBC9951635, 48 h, read at 48 hr, read-out: Minimum Inhibitory Conc. (MIC), 48 hr.
[14] = ATCC28707, 24 h, read at 24 hr, read-out: Minimum Inhibitory Conc. (MIC), 24 hr.
[15] = ATCC28707, 48 h, read at 48 hr, read-out: Minimum Inhibitory Conc. (MIC), 48 hr.
[16] = ATCC750, 24 h, read at 24 hr, read-out: Minimum Inhibitory Conc. (MIC), 24 hr.
[17] = ATCC750, 48 h, read at 48 hr, read-out: Minimum Inhibitory Conc. (MIC), 48 hr.
[18] = KJP000531594, 24 h, read at 24 hr, isolate not given, assigned by line order and MLC of Table 4B, read-out: Minimum Inhibitory Conc. (MIC), 24 hr.
[19] = KJP000531594, 48 h, read at 48 hr, isolate assigned by line order, read-out: Minimum Inhibitory Conc. (MIC), 48 hr.
[20] = SLPBC0012854, 48 h, read at 48 hr, read-out: Minimum Inhibitory Conc. (MIC), 48 hr.
[21] = SLPBC0012854, 72 h, read at 72 hr, read-out: Minimum Inhibitory Conc. (MIC), 72 hr.
[22] = LH000664533, 24 h, read at 24 hr, read-out: Minimum Inhibitory Conc. (MIC), 24 hr.
[23] = LH000664533, 48 h, read at 48 hr, read-out: Minimum Inhibitory Conc. (MIC), 48 hr.
[24] = ERHBC9938274, 24 h, read at 24 hr, read-out: Minimum Inhibitory Conc. (MIC), 24 hr.
[25] = ERHBC9938274, 48 h, read at 48 hr, read-out: Minimum Inhibitory Conc. (MIC), 48 hr.

| Compound | MIC [1, 10] [µg/mL] | MIC [1, 11] [µg/mL] | MFC [1] [µg/mL] | MIC [2, 12] [µg/mL] | MIC [2, 13] [µg/mL] | MFC [2] [µg/mL] | MFC [3] [µg/mL] | MIC [3, 14] [µg/mL] | MIC [3, 15] [µg/mL] | MFC [4] [µg/mL] | MIC [4, 16] [µg/mL] | MIC [4, 17] [µg/mL] | MIC [5, 18] [µg/mL] | MIC [5, 19] [µg/mL] | MFC ([5]; isolate assigned by line order) [µg/mL] | MIC [6, 20] [µg/mL] | MIC [6, 21] [µg/mL] | MFC [6] [µg/mL] | IC50 [7] [µM] | MIC [8, 22] [µg/mL] | also measured |
| --- | --- | --- | --- | --- | --- | --- | --- | --- | --- | --- | --- | --- | --- | --- | --- | --- | --- | --- | --- | --- | --- |
| C[N+](C)(C)C(CCc1ccccc1)C(=O)OCCCCCCCCOc1ccc(OCc2ccccc2)cc1.[I-] (stereo not drawn) [Compound 1260] | 1 | 1 | 2 | 2 | 2 | 2 | 1 | 1 | 1 | 2 | 2 | 2 | 2 | 2 | 2 | 1 | 1 | 2 | 45.5 | 2 | MIC [8, 23]: 2 µg/mL; MFC [8]: 4 µg/mL; MIC [9, 24]: 2 µg/mL; MIC [9, 25]: 2 µg/mL; MFC [9]: 2 µg/mL |
| COC(=O)c1cc2ccccc2[n+](C)c1-c1c[nH]c2ccccc12.[I-] [Compound 1500] | 32 | 32 | > 32 | 32 | > 32 | > 32 | 8 | 4 | 8 | > 32 | 32 | > 32 | 32 | > 32 | > 32 | 32 | 32 | > 32 | > 450 | 32 | Minimum Inhibitory Conc. (MIC), 72 hr. ([1]; read at 72 hr): >32 µg/mL; Minimum Inhibitory Conc. (MIC), 24 hr. ([2]; read at 24 hr): >32 µg/mL; Minimum Inhibitory Conc. (MIC), 24 hr. ([4]; read at 24 hr): >32 µg/mL; Minimum Inhibitory Conc. (MIC), 24 hr. ([5]; read at 24 hr, isolate not given, assigned by line order and MLC of Table 4B): >32 µg/mL; Minimum Inhibitory Conc. (MIC), 72 hr. ([6]; read at 72 hr): >32 µg/mL; Minimum Inhibitory Conc. (MIC), 24 hr. ([8]; read at 24 hr): >32 µg/mL; MIC [8, 23]: > 32 µg/mL; MFC [8]: > 32 µg/mL; MIC [9, 24]: 32 µg/mL; MIC [9, 25]: > 32 µg/mL; MFC [9]: > 32 µg/mL; Minimum Inhibitory Conc. (MIC), 24 hr. ([9]; read at 24 hr): >32 µg/mL |
| C[N+](C)(C)c1ccc(CCCC(=O)OCCCCCCCCOc2ccc(OCc3ccccc3)cc2)cc1.[I-] [Compound 1200] | 2 | 2 | 4 | 1 | 1 | 1 | 1 | 1 | 1 | 1 | 2 | 2 | 2 | 2 | 2 | 2 | 2 | 4 | 53.1 | 2 | Minimum Inhibitory Conc. (MIC), 24 hr. ([4]; read at 24 hr): 1 µg/mL; Minimum Inhibitory Conc. (MIC), 48 hr. ([4]; read at 48 hr): 1 µg/mL; MIC [8, 23]: 2 µg/mL; MFC [8]: 2 µg/mL; MIC [9, 24]: 1 µg/mL; MIC [9, 25]: 2 µg/mL; MFC [9]: 2 µg/mL |
